In publication PMC5218480 (PLoS ONE, 2017):

Test system: MV-4-11 cells
Assay: Gene expression microarray analysis (Affymetrix PrimeView) and GSEA
Type: cell-based, human
Set-up: RFU PODN (11730768_x_at) / Fold change /veh PODN (11730768_x_at) / RFU LINC00158 (11744669_a_at) / Fold change /veh LINC00158 (11744669_a_at) / RFU DUSP10 (11751237_a_at) / Fold change /veh DUSP10 (11751237_a_at) / RFU ID3 (11757404_x_at) / Fold change /veh ID3 (11757404_x_at) / RFU PLEKHG5 (11737974_s_at) / Fold change /veh PLEKHG5 (11737974_s_at) / RFU LRRC4B (11730491_at) / Fold change /veh LRRC4B (11730491_at) / RFU GIMAP4 (11747438_a_at) / Fold change /veh GIMAP4 (11747438_a_at) / RFU KRT8 (11758183_x_at) / Fold change /veh KRT8 (11758183_x_at) / RFU CNN1 (11734310_a_at) / Fold change /veh CNN1 (11734310_a_at) / RFU VPS37D (11726825_at) / Fold change /veh VPS37D (11726825_at) / RFU C10orf10 (11716522_x_at) / Fold change /veh C10orf10 (11716522_x_at) / RFU KIR2DL2 /// KIR2DL4 /// KIR2DL5A /// KIR2DL5B /// KIR2DS1 /// KIR2DS2 /// KIR2DS3 /// KIR2DS4 /// KIR3DL3 /// KIR3DL3 /// KIR3DS1 (11738374_at) / Fold change /veh KIR2DL2 /// KIR2DL4 /// KIR2DL5A /// KIR2DL5B /// KIR2DS1 /// KIR2DS2 /// KIR2DS3 /// KIR2DS4 /// KIR3DL3 /// KIR3DL3 /// KIR3DS1 (11738374_at) / RFU C1QL1 (11718748_at) / Fold change /veh C1QL1 (11718748_at) / RFU TMPRSS4 (11747572_a_at) / Fold change /veh TMPRSS4 (11747572_a_at) / RFU HAMP (11756126_x_at) / Fold change /veh HAMP (11756126_x_at) / RFU RNFT2 (11725882_a_at) / Fold change /veh RNFT2 (11725882_a_at) / RFU NR4A2 (11747474_a_at) / Fold change /veh NR4A2 (11747474_a_at) / RFU ABCC12 (11746883_a_at) / Fold change /veh ABCC12 (11746883_a_at) / RFU TMEM136 (11760407_x_at) / Fold change /veh TMEM136 (11760407_x_at) / RFU CLDN22 /// WWC2 (11732394_at) / Fold change /veh CLDN22 /// WWC2 (11732394_at) / RFU HLA-DPB1 (11760878_x_at) / Fold change /veh HLA-DPB1 (11760878_x_at) / RFU SPINT1 (11716480_a_at) / Fold change /veh SPINT1 (11716480_a_at) / RFU GAP43 (11754022_s_at) / Fold change /veh GAP43 (11754022_s_at) / RFU A4GNT (11735810_at) / Fold change /veh A4GNT (11735810_at) / RFU PRB3 (11715151_x_at) / Fold change /veh PRB3 (11715151_x_at) / RFU TUBB4B (11761932_at) / Fold change /veh TUBB4B (11761932_at) / RFU CAPN14 (11732068_a_at) / Fold change /veh CAPN14 (11732068_a_at) / RFU TMCC2 (11721928_a_at) / Fold change /veh TMCC2 (11721928_a_at) / RFU IRGQ (11745062_a_at) / Fold change /veh IRGQ (11745062_a_at) / RFU FAM174B (11720279_a_at) / Fold change /veh FAM174B (11720279_a_at) / RFU TMPRSS4 (11748680_a_at) / Fold change /veh TMPRSS4 (11748680_a_at) / RFU FAM212B (11763350_a_at) / Fold change /veh FAM212B (11763350_a_at) / RFU PLEKHG5 (11743358_a_at) / Fold change /veh PLEKHG5 (11743358_a_at) / RFU ZSCAN30 (11745921_a_at) / Fold change /veh ZSCAN30 (11745921_a_at) / RFU CMKLR1 (11741424_a_at) / Fold change /veh CMKLR1 (11741424_a_at) / RFU LOC101060620 /// MAPK8IP1 (11723275_at) / Fold change /veh LOC101060620 /// MAPK8IP1 (11723275_at) / RFU SPTSSB (11747773_x_at) / Fold change /veh SPTSSB (11747773_x_at) / RFU PRSS12 (11739890_at) / Fold change /veh PRSS12 (11739890_at) / RFU BIN1 (11741810_x_at) / Fold change /veh BIN1 (11741810_x_at) / RFU WNT11 (11732464_a_at) / Fold change /veh WNT11 (11732464_a_at) / RFU C10orf10 (11716521_a_at) / Fold change /veh C10orf10 (11716521_a_at) / RFU C5orf56 (11738089_at) / Fold change /veh C5orf56 (11738089_at) / RFU CYB561 (11721691_x_at) / Fold change /veh CYB561 (11721691_x_at) / RFU ANKRD19P (11752326_a_at) / Fold change /veh ANKRD19P (11752326_a_at) / RFU OR2T12 /// OR2T33 /// OR2T8 (11738714_s_at) / Fold change /veh OR2T12 /// OR2T33 /// OR2T8 (11738714_s_at) / RFU VCAN (11748164_a_at) / Fold change /veh VCAN (11748164_a_at) / RFU JSRP1 (11732532_at) / Fold change /veh JSRP1 (11732532_at) / RFU KRTAP10-11 (11738290_x_at) / Fold change /veh KRTAP10-11 (11738290_x_at) / RFU MYO3A (11730013_a_at) / Fold change /veh MYO3A (11730013_a_at) / RFU EBF3 (11725865_a_at) / Fold change /veh EBF3 (11725865_a_at) / RFU CAMK2N1 (11719241_x_at) / Fold change /veh CAMK2N1 (11719241_x_at) / RFU C5orf56 (11738088_a_at) / Fold change /veh C5orf56 (11738088_a_at) / RFU OLFML3 (11715873_a_at) / Fold change /veh OLFML3 (11715873_a_at) / RFU LOC100653217 /// NTM (11731650_a_at) / Fold change /veh LOC100653217 /// NTM (11731650_a_at) / RFU MAPK11 (11762145_a_at) / Fold change /veh MAPK11 (11762145_a_at) / RFU FIZ1 (11724087_x_at) / Fold change /veh FIZ1 (11724087_x_at) / RFU OASL (11726364_x_at) / Fold change /veh OASL (11726364_x_at) / RFU SOX15 (11748057_x_at) / Fold change /veh SOX15 (11748057_x_at) / RFU CD79A (11719716_a_at) / Fold change /veh CD79A (11719716_a_at) / RFU HIST1H1D (11736915_at) / Fold change /veh HIST1H1D (11736915_at) / RFU CASKIN2 (11723855_a_at) / Fold change /veh CASKIN2 (11723855_a_at) / RFU LOC730098 (11760151_x_at) / Fold change /veh LOC730098 (11760151_x_at) / RFU OR4N2 (11742367_at) / Fold change /veh OR4N2 (11742367_at) / RFU PRRT2 (11749266_a_at) / Fold change /veh PRRT2 (11749266_a_at) / RFU SNX32 (11753110_a_at) / Fold change /veh SNX32 (11753110_a_at) / RFU CDHR5 (11726645_a_at) / Fold change /veh CDHR5 (11726645_a_at) / RFU RCAN1 (11760418_a_at) / Fold change /veh RCAN1 (11760418_a_at) / RFU FAM167A (11723789_a_at) / Fold change /veh FAM167A (11723789_a_at) / RFU FAM26E (11764081_at) / Fold change /veh FAM26E (11764081_at) / RFU ISYNA1 (11749810_s_at) / Fold change /veh ISYNA1 (11749810_s_at) / RFU ACY1 (11761880_at) / Fold change /veh ACY1 (11761880_at) / RFU 11764098_at / Fold change /veh 11764098_at / RFU SAMD14 (11745864_x_at) / Fold change /veh SAMD14 (11745864_x_at) / RFU NPB (11741838_a_at) / Fold change /veh NPB (11741838_a_at) / RFU TMPRSS6 (11731388_a_at) / Fold change /veh TMPRSS6 (11731388_a_at) / RFU KRTAP10-2 (11738614_at) / Fold change /veh KRTAP10-2 (11738614_at) / RFU ARHGAP8 /// PRR5-ARHGAP8 (11727945_x_at) / Fold change /veh ARHGAP8 /// PRR5-ARHGAP8 (11727945_x_at) / RFU KRTAP5-7 /// NADSYN1 (11734609_at) / Fold change /veh KRTAP5-7 /// NADSYN1 (11734609_at) / RFU RASL12 (11751679_a_at) / Fold change /veh RASL12 (11751679_a_at) / RFU CDKN2B (11736163_a_at) / Fold change /veh CDKN2B (11736163_a_at) / RFU PRF1 (11729649_at) / Fold change /veh PRF1 (11729649_at) / RFU, ZNF638 /// ZNF638-IT1 / Fold change vs veh, ZNF638 /// ZNF638-IT1 / RFU, PANK3 / Fold change vs veh, PANK3 / RFU, SH3YL1 / Fold change vs veh, SH3YL1 / RFU, ZEB2 / Fold change vs veh, ZEB2 / RFU, NRIP1 / Fold change vs veh, NRIP1 / RFU, PTTG1IP / Fold change vs veh, PTTG1IP / RFU, CAPN2 / Fold change vs veh, CAPN2 / RFU, MED14 / Fold change vs veh, MED14 / RFU, SNORA58 / Fold change vs veh, SNORA58 / RFU, C1orf63 / Fold change vs veh, C1orf63 / RFU, LRRFIP1 / Fold change vs veh, LRRFIP1 / RFU, NDUFAF7 / Fold change vs veh, NDUFAF7 / RFU, SLC12A2 / Fold change vs veh, SLC12A2 / RFU, IBTK / Fold change vs veh, IBTK / RFU, ESF1 / Fold change vs veh, ESF1 / Fold change vs veh, TMEM50B / RFU, TAOK1 / Fold change vs veh, TAOK1 / RFU, ACBD3 / Fold change vs veh, ACBD3 / RFU, TMA16 / Fold change vs veh, TMA16 / RFU, RWDD3 / Fold change vs veh, RWDD3 / RFU, BCAT1 / Fold change vs veh, BCAT1 / RFU, EDEM3 / Fold change vs veh, EDEM3 / RFU, TMEM33 / Fold change vs veh, TMEM33 / RFU, WDR75 / Fold change vs veh, WDR75 / RFU, AHCTF1 / Fold change vs veh, AHCTF1 / RFU, TFRC / Fold change vs veh, TFRC / RFU, ZDHHC17 / Fold change vs veh, ZDHHC17 / RFU, NOM1 / Fold change vs veh, NOM1 / RFU, ARL8B / Fold change vs veh, ARL8B / RFU, ZBTB11 / Fold change vs veh, ZBTB11 / RFU, TAMM41 / Fold change vs veh, TAMM41 / RFU, KIAA1704 /// LOC100996395 / Fold change vs veh, KIAA1704 /// LOC100996395 / RFU, ING1 / Fold change vs veh, ING1 / RFU, TRMT61B / Fold change vs veh, TRMT61B / RFU, FUBP3 / Fold change vs veh, FUBP3 / RFU, TP53 / Fold change vs veh, TP53 / RFU, TNKS2 / Fold change vs veh, TNKS2 / RFU, ZFP14 / Fold change vs veh, ZFP14 / RFU, ACTR2 / Fold change vs veh, ACTR2 / RFU, PPP3R1 / Fold change vs veh, PPP3R1 / RFU, PIK3R1 / Fold change vs veh, PIK3R1 / RFU, HNRNPA1 / Fold change vs veh, HNRNPA1 / RFU, RNF170 / Fold change vs veh, RNF170 / RFU, ZNF28 / Fold change vs veh, ZNF28 / RFU, RNGTT / Fold change vs veh, RNGTT / RFU, OGT / Fold change vs veh, OGT / RFU, BRD1 / Fold change vs veh, BRD1 / RFU, MARS / Fold change vs veh, MARS / RFU, ZNF655 / Fold change vs veh, ZNF655 / RFU, FAHD1 / Fold change vs veh, FAHD1 / RFU, BDP1 / Fold change vs veh, BDP1 / RFU, LRRCC1 / Fold change vs veh, LRRCC1 / RFU, ARID1A / Fold change vs veh, ARID1A / RFU, ZNF146 / Fold change vs veh, ZNF146 / RFU, ZNF330 / Fold change vs veh, ZNF330 / RFU, GPN3 / Fold change vs veh, GPN3 / RFU, C9orf123 / Fold change vs veh, C9orf123 / RFU, N4BP2L2 / Fold change vs veh, N4BP2L2 / RFU, ARFIP1 / Fold change vs veh, ARFIP1 / RFU, FAM179B / Fold change vs veh, FAM179B / RFU, BCL10 / Fold change vs veh, BCL10 / RFU, UHRF1BP1L / Fold change vs veh, UHRF1BP1L / RFU, BET1 / Fold change vs veh, BET1 / RFU, CNOT2 / Fold change vs veh, CNOT2 / RFU, ZNF268 / Fold change vs veh, ZNF268 / Fold change vs veh, ZNF507 / RFU, DGCR2 / Fold change vs veh, DGCR2 / RFU, WDSUB1 / Fold change vs veh, WDSUB1 / Fold change vs veh, HSP90B1 /// MIR3652 / RFU, ADSS / Fold change vs veh, ADSS / RFU, GK / Fold change vs veh, GK / RFU, ZNF148 / Fold change vs veh, ZNF148 / RFU, TAF9 / Fold change vs veh, TAF9 / RFU, SLC1A5 / Fold change vs veh, SLC1A5 / RFU, SLMO2 / Fold change vs veh, SLMO2 / RFU, ABCC4 / Fold change vs veh, ABCC4 / RFU, LOC101060439 /// RAP1B / Fold change vs veh, LOC101060439 /// RAP1B / RFU, RFX7 / Fold change vs veh, RFX7 / RFU, GTPBP10 / Fold change vs veh, GTPBP10 / RFU, CNEP1R1 / Fold change vs veh, CNEP1R1 / RFU, BIVM-ERCC5 /// ERCC5 / Fold change vs veh, BIVM-ERCC5 /// ERCC5 / RFU, ILF3 / Fold change vs veh, ILF3 / RFU 11762660_at / Fold change /veh 11762660_at / RFU VCAN (11757783_s_at) / Fold change /veh VCAN (11757783_s_at) / RFU DDX43 (11728927_at) / Fold change /veh DDX43 (11728927_at) / RFU KRT8 (11758188_x_at) / Fold change /veh KRT8 (11758188_x_at) / RFU NKD1 (11759106_at) / Fold change /veh NKD1 (11759106_at) / RFU SRD5A1 (11742802_a_at) / Fold change /veh SRD5A1 (11742802_a_at) / RFU TPSAB1 /// TPSB2 (11721975_s_at) / Fold change /veh TPSAB1 /// TPSB2 (11721975_s_at) / RFU GSTM3 (11746129_a_at) / Fold change /veh GSTM3 (11746129_a_at) / RFU IL23R (11737362_x_at) / Fold change /veh IL23R (11737362_x_at) / RFU TMEM51 (11727254_a_at) / Fold change /veh TMEM51 (11727254_a_at) / RFU PIWIL2 (11732686_x_at) / Fold change /veh PIWIL2 (11732686_x_at) / RFU ORM1 (11744905_x_at) / Fold change /veh ORM1 (11744905_x_at) / RFU CCDC152 (11743942_at) / Fold change /veh CCDC152 (11743942_at) / RFU ECM1 (11717891_a_at) / Fold change /veh ECM1 (11717891_a_at) / RFU IL23R (11748794_a_at) / Fold change /veh IL23R (11748794_a_at) / RFU TNFAIP8L3 (11732012_x_at) / Fold change /veh TNFAIP8L3 (11732012_x_at) / RFU MBOAT4 (11741988_at) / Fold change /veh MBOAT4 (11741988_at) / RFU 11764193_at / Fold change /veh 11764193_at / RFU TMEM53 (11763286_at) / Fold change /veh TMEM53 (11763286_at) / RFU MAGEB2 (11727129_at) / Fold change /veh MAGEB2 (11727129_at) / RFU TMEM200A (11744735_a_at) / Fold change /veh TMEM200A (11744735_a_at) / RFU CCDC152 (11751479_a_at) / Fold change /veh CCDC152 (11751479_a_at) / RFU FAM211A (11726209_a_at) / Fold change /veh FAM211A (11726209_a_at) / RFU RGS16 (11746705_a_at) / Fold change /veh RGS16 (11746705_a_at) / RFU VCAN (11755009_s_at) / Fold change /veh VCAN (11755009_s_at) / RFU RHOB (11743442_s_at) / Fold change /veh RHOB (11743442_s_at) / RFU RGS16 (11720943_a_at) / Fold change /veh RGS16 (11720943_a_at) / RFU RGS16 (11720944_at) / Fold change /veh RGS16 (11720944_at) / RFU, VPS4B / Fold change vs veh, VPS4B / RFU, CREB1 / Fold change vs veh, CREB1 / RFU, DNAJC13 / Fold change vs veh, DNAJC13 / RFU, GNAQ / Fold change vs veh, GNAQ / RFU, CDK5R1 / Fold change vs veh, CDK5R1 / RFU, ZRANB3 / Fold change vs veh, ZRANB3 / RFU, CUL4A / Fold change vs veh, CUL4A / RFU, CCNY / Fold change vs veh, CCNY / RFU, UFL1 / Fold change vs veh, UFL1 / RFU, COG3 / Fold change vs veh, COG3 / RFU, DIAPH2 / Fold change vs veh, DIAPH2 / RFU, SKA2 / Fold change vs veh, SKA2 / RFU, AFF3 / Fold change vs veh, AFF3 / RFU, LMF1 / Fold change vs veh, LMF1 / RFU, IPO11 / Fold change vs veh, IPO11 / RFU, DFFB / Fold change vs veh, DFFB / RFU, FOXP1 / Fold change vs veh, FOXP1 / RFU, CARD8 / Fold change vs veh, CARD8 / RFU, STRN3 / Fold change vs veh, STRN3 / RFU, ADK / Fold change vs veh, ADK / RFU, RASSF2 / Fold change vs veh, RASSF2 / RFU, WIPF1 / Fold change vs veh, WIPF1 / RFU, LARP1B / Fold change vs veh, LARP1B / RFU, RASA1 / Fold change vs veh, RASA1 / RFU, RB1 / Fold change vs veh, RB1 / RFU, PPFIA1 / Fold change vs veh, PPFIA1 / RFU, MAT2A / Fold change vs veh, MAT2A / RFU, CCT5 / Fold change vs veh, CCT5 / RFU, WDR92 / Fold change vs veh, WDR92 / RFU, CUX1 / Fold change vs veh, CUX1 / RFU, TTC7A / Fold change vs veh, TTC7A / RFU, TMEM135 / Fold change vs veh, TMEM135 / RFU, DEPTOR / Fold change vs veh, DEPTOR / RFU, CPM / Fold change vs veh, CPM / RFU, DNAJB6 / Fold change vs veh, DNAJB6 / RFU, CACNA2D3 / Fold change vs veh, CACNA2D3 / RFU, DTX4 / Fold change vs veh, DTX4 / RFU, TFCP2 / Fold change vs veh, TFCP2 / RFU, GMCL1 /// GMCL1P1 / Fold change vs veh, GMCL1 /// GMCL1P1 / RFU, AEBP2 / Fold change vs veh, AEBP2 / RFU, SNHG1 /// SNORD22 /// SNORD25 /// SNORD26 /// SNORD27 /// SNORD28 /// SNORD29 /// SNORD31 / Fold change vs veh, SNHG1 /// SNORD22 /// SNORD25 /// SNORD26 /// SNORD27 /// SNORD28 /// SNORD29 /// SNORD31 / Fold change (Aza/veh), C12orf56 (ProbeSet 11735607_a_at) / Fold change (ACY-1035/veh), C12orf56 (ProbeSet 11735607_a_at) / Fold change (Aza/veh), FGFR1OP (ProbeSet 11751329_s_at) / Fold change (ACY-1035/veh), FGFR1OP (ProbeSet 11751329_s_at) / Fold change (Aza/veh), VPS36 (ProbeSet 11739960_a_at) / Fold change (ACY-1035/veh), VPS36 (ProbeSet 11739960_a_at) / RFU SYPL1 (11715823_x_at) / Fold change /veh SYPL1 (11715823_x_at) / RFU IGFBP7 (11715501_s_at) / Fold change /veh IGFBP7 (11715501_s_at) / RFU REEP3 (11722064_at) / Fold change /veh REEP3 (11722064_at) / RFU IGLL1 (11728026_x_at) / Fold change /veh IGLL1 (11728026_x_at): dose or concentration left out as unconfirmed
Conditions: MV-4-11 cells, 48 hours

## Nc1ccc(-c2cccs2)cc1NC(=O)c1ccc2c(c1)cc(C1CC1)n2CCN1CCOCC1 [ACY-1035]
  Fold change /veh KRTAP10-2 (11738614_at): 0.99
